Results published in US4567178A, “Substituted 5,11-dihydro-6H-dibenz[b,e]azepin-6-ones and pharmaceutical compositions containing same” (Dr. Karl Thomae GmbH, priority 1984, dated 1986).

Columns and labels:
[1] = test system: oxotremorine-induced secretion of saliva; assay: Oxotremorine test: inhibition of oxotremorine-induced salivation; type: in vivo, rat (Crl:COBS-CD(SD) BR, female albino); conditions: Rattus norvegicus, iv, read-out: Oxotremorine Tests: Inhibition of Salivation ED50
Method: Oxotremorine, a specific agonist at muscarinic receptors, produces lesions of the gastric mucosa in rats and increases the secretion of saliva. This test model was chosen to be able to determine any selective activity of an antimuscarinic substance on the stomach.
Ten female albino rats (of the Crl:COBS-CD(SD) BR strain) with a body weight of from 120 to 150 gm were used for each treatment group. These rats were given free access to drinking water but were deprived of food for 24 hours before the start of the test.
To determine, in preliminary tests, the muscarinic effect of oxotremorine on each of the symptoms investigated, a dosage-activity curve was plotted with at least three doses for each symptom.
When testing antimuscarinic substances, the oxotremorine dosage used was the dosage which triggered the symptom to be influenced in 90 to 100% of the animals in the preliminary tests.
Secretion of saliva: 0.083 mg/kg i.v.
Each antimuscarinic substance was administered in uniformly graduated dosages by intravenous route 15 minutes before the administration of oxotremorine. Control groups were given the solvent and suspension agent in corresponding amounts instead of the test substance.
The results were expressed as the percentage inhibition of the oxotremorine effect (percentage of the animals without the symptom in question). The ED50 values were determined using the method of LITCHFIELD and WILCOXON (J. Pharmacol. Exp. Ther. 96, 99, 1949).

[2] = target: T1, muscarinic receptors (smooth muscle from fundus of stomach) (Rattus norvegicus, UniProt P10980); assay: Muscarinic receptor binding (inhibition of specific 3H-N-methylscopolamine binding), smooth muscle from fundus of stomach; parameters: species or system rat (male Sprague-Dawley)
T1 construct: Smooth muscle of the fundic section of the stomach was separated from the gastric mucosa; from tissue; host or cells: fundic smooth muscle homogenate of the stomach of male Sprague-Dawley rats
T1 sequence (P10980 1-466): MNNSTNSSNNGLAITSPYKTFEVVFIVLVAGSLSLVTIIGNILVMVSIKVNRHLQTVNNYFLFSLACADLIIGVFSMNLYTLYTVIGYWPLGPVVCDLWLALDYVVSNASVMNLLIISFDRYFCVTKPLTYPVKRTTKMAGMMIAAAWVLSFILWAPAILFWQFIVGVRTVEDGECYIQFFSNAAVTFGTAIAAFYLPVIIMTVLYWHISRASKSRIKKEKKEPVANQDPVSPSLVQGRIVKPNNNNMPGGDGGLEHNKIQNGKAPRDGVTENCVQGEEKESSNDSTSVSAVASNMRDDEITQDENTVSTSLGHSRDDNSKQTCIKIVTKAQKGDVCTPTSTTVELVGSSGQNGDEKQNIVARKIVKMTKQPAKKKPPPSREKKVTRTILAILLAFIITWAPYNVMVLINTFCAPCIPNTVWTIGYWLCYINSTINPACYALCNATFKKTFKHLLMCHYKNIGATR
Method: (§1) Determination of the IC50 value
(§2) The organ donors were male Sprague-Dawley rats weighing from 180 to 220 gm. After the removal of the stomach and cerebral cortex, all the other steps were carried out in ice-cold HepesHCl buffer (pH 7.4:100 m molar NaCl, 10 m molr MgCl2). Smooth muscle of the fundic section of the stomach was separated from the gastric mucosa and subjected to preliminary homogenization. All the organs were then homogenized in a potter apparatus.
(§3) For the binding test, the homogenized organ preparations were diluted as follows:
Smooth muscle from the funding of the stomach: 1:100.
(§4) The homogenized organ preparations were incubated in an Eppendorf centrifugal tube at 30° C. with a specific concentration of the radioligand and a concentration series of the non-radioactive test substances. The period of incubation was 45 minutes. 0.3N molar ^3 H-N-methylscopolamine (^3 H-NMS) was used as the radioligand. After the incubation had been stopped by centrifuging at 14,000 g, the radioactivity in the pellet was determined. It represents the sum of specific and non-specific binding of ^3 H-NMS. The proportion of non-specific binding was defined as the radioactivity which was bound in the presence of 1μ molar quinuclidinyl benzylate. Four measurements were taken in each case. The IC50 values of the non-labelled test substances were determined graphically. They represent the concentration of test substance at which the specific binding of ^3 H-NMS to the muscarinic receptors in the various organs was inhibited by 50%.

[3] = Mydriasis (effect on pupil size); conditions: rat, in vivo, iv, pupil size observed for ten minutes
Method: The effect of the test substances on the pupil size in rats was investigated as follows:
The substances were administered intravenously to groups of ten animals in at least three uniformly graduated dosages. The pupil size was then observed for ten minutes to see if there were any changes (the occurrence of mydriasis or miosis), and the test was carried out blind, i.e., the investigator was not aware of the preliminary treatment received by the animals. The percentage of test animals in which mydriasis occurred was determined. The ED50 values were again determined according to LITCHFIELD and WILCOXON (see above).

[4] = target: muscarinic receptors (cerebral cortex); assay: Muscarinic receptor binding (inhibition of specific 3H-N-methylscopolamine binding), cerebral cortex; parameters: species or system rat (male Sprague-Dawley); conditions: rat cerebral cortex homogenate 1:3000, 3H-NMS, 30° C., 45 minutes; read-out: Receptor Binding Tests IC50, Cortex
Method: as §1, §2, §3
as §4, with “They represent the concentration of test substance at which the specific binding of ^3 H-NMS to the muscarinic receptors in the various organs was inhibited by 50%.” left out

Compound: CN1CCN(CC(=O)C2c3ccccc3NC(=O)c3ccccc32)CC1 (centres unmarked) [C, 5,11-Dihydro-[(4-methyl-1-piperazinyl)-acetyl]-6H-dibenz[b,e]azepin-6-one]
- ED50 [1]: 0.335 mg/kg
- IC50 [2]: 400 nM
- ED50 at 10 min [3]: 0.161 mg/kg

Compound: CN1CCC(NC(=O)C2c3ccccc3NC(=O)c3ccccc32)CC1 (centres unmarked) [A, 5,11-Dihydro-11-[[(1-methyl-4-piperidinyl)-amino]-carbonyl]-6H-dibenz[b,e]azepin-6-one]
- ED50 [1]: 0.19 mg/kg
- IC50 [2]: 700 nM
- IC50 [4]: 40 nM
- ED50 at 10 min [3]: 0.075 mg/kg

Compound: CN1CCC(CC(=O)C2c3ccccc3NC(=O)c3ccccc32)CC1 (centres unmarked) [B, 5,11-Dihydro-11-[(1-methyl-4-piperidinyl)-acetyl]-6H-dibenz[b,e]azepin-6-one]
- ED50 [1]: 0.186 mg/kg
- IC50 [2]: 150 nM
- IC50 [4]: 25 nM
- ED50 at 10 min [3]: 0.179 mg/kg
